This is an account of results in patent publication US20260034094A1, “COMPOSITIONS AND METHODS FOR INDUCING FERROPTOSIS” (Kojin Therapeutics, Inc., priority 2022, published 2026).

One test concerns the target human recombinant GCL (Homo sapiens (Human), UniProt P48506). The test is described as follows: GCL enzyme profiling assay (ADP-Glo luminescence). The test is classed as biochemical. The settings on record: read-out: GCL IC50. An outline of the steps:
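IC50 fitted by four-parameter logistic to luminescent ADP formation (ADP-Glo). Reaction at room temperature in HEPES pH 7.5 with 30 mM MgCl2, 0.2% F-127, 1% DMSO; 5 nM GCL and 0.6 mM ATP preincubated 1 h before adding 1 mM glutamate plus 1.2 mM α-aminobutyrate for 2 h.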

Another test relates to RKN cells. The test is described as follows: RKN cell profiling assay (cell viability, CellTiter-Glo). The test is classed as cell-based. The conditions noted are these: read-out: Cell Killing EC50. An outline of the steps:
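Viability read by CellTiter-Glo luminescence after 96 h compound exposure (0.5% DMSO final) of cells plated at 1,000/well in 10% FBS F-12 and allowed 24 h attachment. Four-parameter fits gave EC50; rescue arms used ferrostatin-1, 1.5 μM, present from seeding.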

The mark [1] stands for this setting: human recombinant GCL 5 nM, 1 h preincubation with ATP.

Where two headings read alike, the source gives them in different places.

Chain of human recombinant GCL (P48506 whole entry): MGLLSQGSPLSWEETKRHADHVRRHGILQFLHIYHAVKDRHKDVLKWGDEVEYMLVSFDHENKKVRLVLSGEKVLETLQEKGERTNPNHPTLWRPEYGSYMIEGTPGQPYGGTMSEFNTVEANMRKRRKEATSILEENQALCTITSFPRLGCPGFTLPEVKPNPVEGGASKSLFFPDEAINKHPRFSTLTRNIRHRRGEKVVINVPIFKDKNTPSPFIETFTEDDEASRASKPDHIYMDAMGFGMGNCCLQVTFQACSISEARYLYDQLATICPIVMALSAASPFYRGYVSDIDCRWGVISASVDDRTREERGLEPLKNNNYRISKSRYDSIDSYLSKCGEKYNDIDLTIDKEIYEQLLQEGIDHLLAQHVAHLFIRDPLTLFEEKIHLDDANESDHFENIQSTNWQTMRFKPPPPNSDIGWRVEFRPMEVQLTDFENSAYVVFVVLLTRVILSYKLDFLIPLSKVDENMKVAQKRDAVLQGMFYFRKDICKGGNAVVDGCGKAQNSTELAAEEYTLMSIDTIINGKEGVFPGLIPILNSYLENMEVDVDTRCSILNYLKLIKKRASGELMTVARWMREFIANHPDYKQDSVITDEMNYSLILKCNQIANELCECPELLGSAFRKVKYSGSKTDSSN

A word on the IC50: it is the concentration that inhibits the measured activity by half. Broadly, the EC50 is the concentration at which the effect is half-maximal. Turning to `COCCCCS(=N)(=O)CC[C@H](N)C(=O)OC` (stereo partly drawn) [Compound 76], on human recombinant GCL (setting [1]), the IC50 lay within 20 to 2000 µM. The EC50 in the test on RKN cells (96 h, 96 h exposure) is not below 1000 µM.
With `COCC(CCS(=N)(=O)CC[C@H](N)C(=O)O)C(F)(F)F` (stereo partly drawn) [Compound 319], the IC50 at human recombinant GCL (human recombinant GCL, ADP-Glo) lay in the range of 20 to 2000 µM. Moreover, in the test on RKN cells (cell viability), the EC50 was less than 1000 µM.
Consider `N=S(=O)(CCC(c1ccc(-c2ccc(OC(F)(F)F)cc2)cc1)C(F)(F)F)CC[C@H](N)C(=O)O` (stereo partly drawn) [Compound 233], for which the IC50 at human recombinant GCL (human recombinant GCL, ADP-Glo) is not above 20 µM. Further, the EC50 in the test with RKN cells (cell viability) is less than 1000 µM.
`Cc1cccc(Cl)c1CCS(=N)(=O)CC[C@H](N)C(=O)O` (stereo partly drawn) [Compound 42]: the IC50 at human recombinant GCL (setting [1]) fell in the range of 20 to 2000 µM. Also, the EC50 in the test on RKN cells (96 h, 96 h exposure) is not below 1000 µM.
Consider `CC(C)(C)OC(=O)[C@@H](N)CC[S@@](=N)(=O)CC[C@H](O)C(F)(F)F` [Compound 489, tert-butyl (S)-2-amino-4-((R,3S)-4,4,4-trifluoro-3-hydroxybutylsulfonimidoyl)butanoate], for which the IC50 at human recombinant GCL (human recombinant GCL, ADP-Glo) is more than 2000 µM. In addition, in the test with RKN cells (cell viability), the half-maximal effective concentration (EC50) was not below 1000 µM.
Turning to `N=S(=O)(C/C=C(\CC(F)(F)F)c1ccc(-c2ccc(Cl)cc2Cl)cc1)CC[C@H](N)C(=O)O` (stereo partly drawn) [Compound 495, (2S)-2-amino-4-((E)-3-(2′, 4′-dichloro-[1, 1′-biphenyl]-4-yl)-5,5,5-trifluoropent-2-en-1-ylsulfonimidoyl) butanoic acid], the IC50 at human recombinant GCL (human recombinant GCL, ADP-Glo) fell in the range of 20 to 2000 µM. Also, the EC50 in the test with RKN cells (cell viability) was not below 1000 µM.
In the case of `Cc1noc(C)c1CCS(=N)(=O)CC[C@H](N)C(=O)O` (stereo partly drawn) [Compound 35], the IC50 on human recombinant GCL (setting [1]) lay within 20 to 2000 µM. For the same molecule, the EC50 in the test on RKN cells (96 h, 96 h exposure) was not below 1000 µM.
Take `COC(CC[S@](=N)(=O)CC[C@H](N)C(=O)O)C(F)(F)F` (stereo partly drawn) [Compound 178]: at human recombinant GCL (setting [1]), the 50% inhibitory concentration (IC50) is not above 20 µM. In addition, the concentration giving a half-maximal response (EC50) with RKN cells (96 h, 96 h exposure) was less than 1000 µM.
`N=S(=O)(CCC(c1ccccc1Cl)C(F)(F)F)CC[C@H](N)C(=O)O` (stereo partly drawn) [Compound 309]: on human recombinant GCL (human recombinant GCL, ADP-Glo), the IC50 is not above 20 µM. Also, the EC50 in the test with RKN cells (cell viability) was less than 1000 µM.
For the molecule `CC(=O)N(c1ccc(C(O)(CC[S@SP3](=N)(=O)CCC(N)C(=O)O)C(F)(F)F)cc1)c1nccs1` (stereo not drawn) [compound 504], the IC50 at human recombinant GCL (human recombinant GCL, ADP-Glo) is not above 20 µM. In the test on RKN cells (cell viability), the half-maximal effective concentration (EC50) is not below 1000 µM.
In the case of `N[C@@H](CCS(=O)(=O)NCC(O)(c1ccc(-c2ccccc2)cn1)C(F)(F)F)C(=O)O` (stereo partly drawn) [Compound 514, (2S)-2-amino-4-(N-(3,3,3-trifluoro-2-hydroxy-2-(5-phenylpyridin-2-yl)propyl)sulfamoyl)butanoic acid], the IC50 on human recombinant GCL (human recombinant GCL, ADP-Glo) lay in the range of 20 to 2000 µM. For the same molecule, the EC50 with RKN cells (cell viability) was not below 1000 µM.
Take `N=S(=O)(CC[C@H](N)C(=O)O)Cc1ccccc1` (stereo partly drawn) [Compound 140]: the half-maximal inhibitory concentration (IC50) at human recombinant GCL (setting [1]) was more than 2000 µM. In addition, in the test with RKN cells (96 h, 96 h exposure), the EC50 is not below 1000 µM.
Regarding `CC(C)(C)CCS(=N)(=O)CC[C@H](N)C(=O)NCc1cncs1` (stereo partly drawn) [Compound 124], on human recombinant GCL (setting [1]), the IC50 was more than 2000 µM. In the test with RKN cells (96 h, 96 h exposure), the EC50 was less than 1000 µM.
The corresponding values for `N=S(=O)(CCc1cccc(C(F)(F)F)c1)CC[C@H](N)C(=O)O` (stereo partly drawn) [Compound 3] are 20 to 2000 µM and not below 1000 µM.
The corresponding values for `CCCCOC(=O)[C@@H](N)CCS(=N)(=O)CCC1CCCC1` (stereo partly drawn) [Compound 77] are more than 2000 µM and less than 1000 µM.
The corresponding values for `Cc1ccc(CCS(=N)(=O)CC[C@H](N)C(=O)O)c(Cl)c1` (stereo partly drawn) [Compound 43] are not above 20 µM and not below 1000 µM.
For the molecule `N=S(=O)(CCc1cccc2ccccc12)CC[C@H](N)C(=O)O` (stereo partly drawn) [Compound 31], the 50% inhibitory concentration (IC50) at human recombinant GCL (setting [1]) is not above 20 µM. For the same molecule, in the test on RKN cells (96 h, 96 h exposure), the EC50 is not below 1000 µM.
The corresponding values for `CC(C)(C)CCS(=N)(=O)CC[C@H](N)C(=O)NC(CO)CO` (stereo partly drawn) [Compound 126] are more than 2000 µM and not below 1000 µM.
As to `N=S(=O)(CCc1ccc(F)c(F)c1)CC[C@H](N)C(=O)O` (stereo partly drawn) [Compound 5], the IC50 on human recombinant GCL (setting [1]) was not above 20 µM. Also, in the test with RKN cells (96 h, 96 h exposure), the concentration giving a half-maximal response (EC50) was not below 1000 µM.
Consider `N=S(=O)(CCC1CCCCC1)CC[C@H](N)C(=O)O` (stereo partly drawn) [Compound 142], for which the half-inhibitory concentration (IC50) on human recombinant GCL (setting [1]) is not above 20 µM. Besides, the concentration for a half-maximal effect (EC50) in the test with RKN cells (96 h, 96 h exposure) was not below 1000 µM.
As to `N=S(=O)(CC[C@H](N)C(=O)O)CCC1(c2ccccc2)CCC1` (stereo partly drawn) [Compound 62], on human recombinant GCL (setting [1]), the half-inhibitory concentration (IC50) was not above 20 µM. The EC50 in the test on RKN cells (96 h, 96 h exposure) is less than 1000 µM.
With `N=S(=O)(CC[C@H](N)C(=O)O)CCC(O)(c1nccs1)C(F)(F)F` (stereo partly drawn) [Compound 344], on human recombinant GCL (human recombinant GCL, ADP-Glo), the IC50 was not above 20 µM. Further, the EC50 in the test on RKN cells (cell viability) is less than 1000 µM.
For the molecule `COc1ccccc1C(CCS(=N)(=O)CC[C@H](N)C(=O)O)C(F)(F)F` (stereo partly drawn) [Compound 398], on human recombinant GCL (human recombinant GCL, ADP-Glo), the half-maximal inhibitory concentration (IC50) is not above 20 µM. Besides, in the test with RKN cells (cell viability), the EC50 was less than 1000 µM.
Take `CCCCS(=N)(=O)CC[C@H](N)C(=O)OC(C)(C)C` (stereo partly drawn) [Compound 483]: the IC50 on human recombinant GCL (human recombinant GCL, ADP-Glo) lay in the range of 20 to 2000 µM. Further, the EC50 with RKN cells (cell viability) is not below 1000 µM.
